Patent US20200069648A1, “HALOALLYLAMINE PYRAZOLE DERIVATIVE INHIBITORS OF LYSYL OXIDASES AND USES THEREOF” (Pharmaxis Ltd., priority 2017, published 2020)
Where a name gives a salt, the structure may show the parent alone.

Experiments:
[1] = test system: CCl4 induced liver fibrosis; assay: CCl4 induced liver fibrosis model; type: in vivo; settings: mice, CCl4 i.p. twice per week for 6 weeks; 0.1-100 mg/Kg; compared with vehicle-treated group
Method: An analysis of the use of LOXL2 inhibitors to treat inflammatory/fibrotic diseases is performed through the use of a CCl4 induced liver fibrosis model. Liver injury is frequently followed by complete parenchymal regeneration due to regenerative potency of hepatocytes. Continuous liver injury due to the administration of CCl4 leads to extracellular matrix accumulation, accompanied by recurrent hepatocyte necrosis, inflammation, and regenerative processes, causing liver fibrosis and consequently liver cirrhosis (see Natsume, M., et al., Attenuated liver fibrosis and depressed serum albumin levels in carbon tetrachloride-treated IL-6-deficient mice. J. Leukoc. Biol., 1999, 66, 601-608 also See Yao, Q, Y., et al. Inhibition by curcumin of multiple sites of the transforming growth factor-beta1 signalling pathway ameliorates the progression of liver fibrosis induced by carbon tetrachloride in rats. BMC Complement Altern Med. 2012 Sep. 16; 12(1):156.).
Mice are injected intraperitoneally with CCl4 (i.p.) 1 ml/kg 25% CCl4 in olive oil, twice per week for a total period of 6 weeks. Compound 15 is given 0.1-100 mg/Kg throughout the period of the experimental procedure or only 3 weeks after CCl4 administration and then throughout the entire study.

[2] = test system: metastatic oral cancer cell line expressing DsRed; assay: Oral metastatic cancer mouse model; type: in vivo; settings: mice, 0.1-100 mg/Kg, up to five weeks; compared with vehicle-treated group
Method: An analysis of the use of LOXL2 inhibitors to treat cancer diseases is performed through the use of an oral metastatic cancer mouse model.
Mice are injected with a metastatic oral cancer cell line expressing DsRed for tracking. Mice are monitored weekly by in vivo imaging (IVIS) based on DsRed expression and by caliper measurements of mouse tongues over a period of up to five weeks. Compound 15 is given 0.1-100 mg/Kg throughout the period of the experimental procedure or only two times a week throughout the entire study.

## Cc1nn(C/C(F)=C/CN)c(C)c1Cc1ccc(S(=O)(=O)N(C)C)c(Cl)c1 [Compound 15, (Z)-4-((1-(4-amino-2-fluorobut-2-en-1-yl)-3,5-dimethyl-1H-pyrazol-4-yl)methyl)-2-chloro-N,N-dimethylbenzenesulfonamide hydrochloride]
[1]
  reduction in liver fibrosis by liver sirius red staining with quantification: up to 50%
[2]
  spread of metastasis: significant reduction
  tongue cancer volume (tongue volume): significant reduction
